Reference: PubChem BioAssay AID1919010 (Molecular Pharmacology Branch, DTP, NCI, 2023)

Test system: Hs578T complex spheroid growth, percent test/control
Assay: Anticancer human tumor Hs578T cell line growth inhibition [AhR];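 further: luminescent viability signal as a proxy for spheroid growth; spheroids exposed to agents for one week after three days of growth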
Conditions: for IC50: curve of first compound; for viability, T/C: stronger effect = lower value
Outline: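 Spheroids combined tumor cells with HUVEC endothelial cells and human MSCs as stroma. AhR antagonists were paired with standard or investigational drugs, each dosed in half-log steps down from near clinical Cmax, or from 10 microM where Cmax was unknown.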

[1] = second compound 0.1 µM, first compound 0.0316 µM
[2] = second compound 0.1 µM, first compound 0.1 µM
[3] = second compound 0.1 µM, first compound 0.316 µM
[4] = second compound 0.1 µM, first compound 1 µM
[5] = second compound 0.1 µM, first compound 3.16 µM
[6] = second compound 0.1 µM, first compound 10 µM
[7] = second compound 0.316 µM, first compound 0.0316 µM
[8] = second compound 0.316 µM, first compound 0.1 µM
[9] = second compound 0.316 µM, first compound 0.316 µM
[10] = second compound 0.316 µM, first compound 1 µM
[11] = second compound 0.316 µM, first compound 3.16 µM
[12] = second compound 0.316 µM, first compound 10 µM
[13] = second compound 1 µM, first compound 0.0316 µM
[14] = second compound 1 µM, first compound 0.1 µM
[15] = second compound 1 µM, first compound 0.316 µM
[16] = second compound 1 µM, first compound 1 µM
[17] = second compound 1 µM, first compound 3.16 µM
[18] = second compound 1 µM, first compound 10 µM
[19] = second compound 3.16 µM, first compound 0.0316 µM
[20] = second compound 3.16 µM, first compound 0.1 µM
[21] = second compound 3.16 µM, first compound 0.316 µM
[22] = second compound 3.16 µM, first compound 1 µM
[23] = second compound 3.16 µM, first compound 3.16 µM
[24] = second compound 3.16 µM, first compound 10 µM
[25] = second compound 10 µM, first compound 0.0316 µM
[26] = second compound 10 µM, first compound 0.1 µM
[27] = second compound 10 µM, first compound 0.316 µM
[28] = second compound 10 µM, first compound 1 µM
[29] = second compound 10 µM, first compound 3.16 µM
[30] = second compound 10 µM, first compound 10 µM

Compound	IC50 (second compound 0.1 µM) [µM]	IC50 (second compound 0.316 µM) [µM]	IC50 (second compound 1 µM) [µM]	IC50 (second compound 3.16 µM) [µM]	IC50 (second compound 10 µM) [µM]	viability, T/C [1] [%]	viability, T/C [2] [%]	viability, T/C [3] [%]	viability, T/C [4] [%]	viability, T/C [5] [%]	viability, T/C [6] [%]	viability, T/C [7] [%]	viability, T/C [8] [%]	viability, T/C [9] [%]	viability, T/C [10] [%]	viability, T/C [11] [%]	viability, T/C [12] [%]	viability, T/C [13] [%]	viability, T/C [14] [%]	viability, T/C [15] [%]	further results
CC1(C)CCC(CN2CCN(c3ccc(C(=O)NS(=O)(=O)c4ccc(NCC5CCOCC5)c([N+](=O)[O-])c4)c(Oc4cnc5[nH]ccc5c4)c3)CC2)=C(c2ccc(Cl)cc2)C1 + CC(CO)NC(=O)c1cc(-c2ccc(Cl)cc2)nn(-c2cnn(C)c2)c1=O	> 10	> 10	> 10	> 10	> 10	109	107	107	101	106	84.3	110	99.7	110	91.2	93	96.3	115	122	114	viability, T/C [16]: 98.3%; viability, T/C [17]: 109%; viability, T/C [18]: 80%; viability, T/C [19]: 108%; viability, T/C [20]: 111%; viability, T/C [21]: 110%; viability, T/C [22]: 99.7%; viability, T/C [23]: 102%; viability, T/C [24]: 88.7%; viability, T/C [25]: 117%; viability, T/C [26]: 96.9%; viability, T/C [27]: 79.4%; viability, T/C [28]: 86%; viability, T/C [29]: 87.1%; viability, T/C [30]: 91.8%
CC1COCCN1c1cc(C2(S(C)(=N)=O)CC2)nc(-c2ccnc3[nH]ccc23)n1 (stereo not given) + CC(CO)NC(=O)c1cc(-c2ccc(Cl)cc2)nn(-c2cnn(C)c2)c1=O	> 10	> 10	> 10	> 10	> 10	112	117	108	107	90.5	60.3	113	122	127	100	85.2	61.3	111	134	112	viability, T/C [16]: 111%; viability, T/C [17]: 94.7%; viability, T/C [18]: 66%; viability, T/C [19]: 111%; viability, T/C [20]: 114%; viability, T/C [21]: 114%; viability, T/C [22]: 111%; viability, T/C [23]: 91.7%; viability, T/C [24]: 59.5%; viability, T/C [25]: 105%; viability, T/C [26]: 121%; viability, T/C [27]: 122%; viability, T/C [28]: 116%; viability, T/C [29]: 90.9%; viability, T/C [30]: 58.8%
